Measured values taken from patent US5190923A, “Peptide compounds containing a cyclic amide structure” (Adir Et Compagnie, priority 1990, dated 1993).

Assays:
Format in all cases: in vivo
[1] = system: sodium-dependent choline uptake (HACU); experiment: Cholinergic deficit induced by barbiturate narcosis in mice (hippocampal HACU); details: mouse hippocampus
[2] = system: oxotremorine-induced tremor; experiment: Oxotremorine-induced tremor in mice; details: for minimal active dose (potentiation of tremor): IP
Experimental: Administered at a dose of 0.5 mg/kg IP, oxotremorine, a non-selective M1 -M2 muscarinic agonist leads to cholinergic symptoms of central origin, such as tremor. In control animals, the maximum tremor-inducing effect is observed after 15 minutes, and this effect disappears completely in the course of 45 to 60 minutes.
The administration of TRH (10 mg/kg IP) 30 minutes before that of oxotremorine potentiates the tremor (+50%) at its peak of intensity (15 minutes), but prolongs it to only a very small extent (15 minutes:+20%). The minimal active dose is 5 mg/kg.
Under the same conditions, the compounds of the invention also exert the same potentiating effect, but at much lower minimal active doses, and this effect persists for a further 60 minutes after the injection of oxotremorine. Thus, the minimal active doses are, for example, as follows: […]

[3] = system: xylazine-induced loss of righting reflex; experiment: Xylazine induced inhibition of the righting reflex in rats; details: IP
Experimental: The administration of a central α2 agonist, xylazine, to rats leads to loss of the animal's righting reflex. This effect is antagonized by yohimbine (α2 antagonist) and by agents facilitating noradrenaline release.
TRH antagonizes the effect of xylazine, and the median effective dose is close to 10 mg/kg IP. Under the same conditions, the ED50 of the compounds of Examples 1 and 5 are 0.1 and 0.3 mg/kg, respectively.

[4] = 30 minutes before oxotremorine 0.5 mg/kg IP

| Compound | counteraction of the fall in HACU ([1]; 1 mg/kg IP, administered 30 minutes before induction of narcosis) [%] | counteraction of the fall in HACU ([1]; 3 mg/kg IP, administered 30 minutes before induction of narcosis) [%] | minimal active dose (potentiation of tremor) [2, 4] [mg/kg] | median effective dose (ED50), antagonism of the effect of xylazine [3] [mg/kg] | counteraction of the fall in HACU ([1]; 10 mg/kg IP, administered 30 minutes before pentobarbital) [%] | counteraction of the fall in HACU ([1]; 10 mg/kg IP, administered simultaneously with pentobarbital (60 mg/kg IP)) [%] | counteraction of the fall in HACU ([1]; 30 mg/kg IP, administered 30 minutes before pentobarbital) | potentiation of the tremor at its peak of intensity (15 minutes) ([2]; 10 mg/kg IP, 30 minutes before oxotremorine 0.5 mg/kg IP) | prolongation of the tremor ([2]; 10 mg/kg IP, 30 minutes before oxotremorine, printed time 15 minutes) | potentiation of the tremor measured at the peak ([2]; administered 60 minutes before the muscarinic agonist) |
| --- | --- | --- | --- | --- | --- | --- | --- | --- | --- | --- |
| AZEP-(S)(N.tau.-Me)His-(1S,3S,4R)ABH-NH2 [Example 1] | -25.5 | -61.1 | 0.3 | 0.1 | – | – | – | – | – | – |
| NC(=O)[C@@H]1CCCN1C(=O)[C@H](Cc1cnc[nH]1)NC(=O)[C@@H]1CCC(=O)N1 [TRH] | – | – | 5 | ~10 | -1.9 | -35 | +4.8% | +50% | +20% | no longer potentiates the tremor |
